Measurements taken from patent US6552054B1, “Chromone derivatives, process for the preparation of the same and uses thereof” (Takeda Chemical Industries, Ltd., priority 1999, dated 2003).

Tested on: stromal cells prepared from the femur bone marrow of a normal rat
Experiment: Osteogenesis promoting effect: alkaline phosphatase activity in cultured bone marrow stromal cells
Type: cell-based, rat (Sprague-Dawley)
Details: test compound 10^−5 M added from 2nd day of culture, cultured additional 5 days, mean ± S.E. (n = 4)
Method: Osteogenesis promoting effect:
Using the stromal cells prepared from the femur bone marrow of a normal rat, an alkaline phosphatase activity was measured as an index of osteogenesis. Briefly, according to the method of Maniatopoulos et al. [Cell Tissue Research, volume 254, p.317 ([…])], the stromal cells were prepared from the femur bone of a Sprague-Dawley male rat, 7 weeks of age, and cultured in an α-MEM (minimum essential medium) solution containing dexamethasone (10^−7M) and β-glycerophosphoric acid (10^−2M) in order to generate calcified bony tissue. One week later, the confluent primary cells were treated with 0.25% trypsin-0.25% EDTA solution, recovered, and subclutured on a culture plate at a cell density of […], (cultured day 0). From the 2nd day of the culture, a test compound (10^−5M) was added to the above culture medium, and cultured for an additional 5 days. The cells were washed with a phosphate buffer, and after addition of 0.2% Nonidet P-40, they were homogenized and centrifuged at 3000 rpm for 10 minutes. The supernatant was measured for an alkaline phosphatase activity according to the method of Lowry et al. [Journal of Biological Chemistry, volume 207, p.19 (1954)]. Tables 1 and 2 show the measured values in terms of mean±standard error (SE). Statistical analysis was performed by means of the Student's t-test.

[1] = Table 2, control (no addition) 0.180 ± 0.008
[2] = Table 1, control (no addition) 0.175 ± 0.009

SMILES | Alkaline phosphatase activity (A405) [1] [A405] | Alkaline phosphatase activity (A405) [2] [A405]
O=C1NC(=O)C(Cc2ccc(NC(=O)c3cc(=O)c4c(O)cccc4o3)cc2)S1 (centres unmarked) [Example no. 16, N-[4-[(2,4-dioxo-1,3-thiazolidin-5-yl)methyl]phenyl]-5-hydroxy-4-oxo-4H-1-benzopyran-2-carboxamide] | 0.720 ± 0.033 | 
O=C1NC(=O)C(Cc2ccc(NC(=O)c3cc(=O)c4ccccc4o3)cc2)S1 (centres unmarked) [Example no. 1, N-[4-[(2,4-dioxo-1,3-thiazolidin-5-yl)methyl]phenyl]-4-oxo-4H-1-benzopyran-2-carboxamide] |  | 0.564 ± 0.041
O=C(Nc1ccc(CN2CCOCC2)cc1)c1cc(=O)c2ccccc2o1 [Example no. 5, N-[4-[(4-morpholinyl)methyl]phenyl]-4-oxo-4H-1-benzopyran-2-carboxamide] |  | 0.558 ± 0.040
O=C1NC(=O)C(Cc2ccc(NC(=O)c3cc(=O)c4ccccc4o3)cc2)O1 (centres unmarked) [Example no. 2, N-[4-[(2,4-dioxo-1,3-oxazolidin-5-yl)methyl]phenyl]-4-oxo-4H-1-benzopyran-2-carboxamide] |  | 0.310 ± 0.008
O=C1NC(=O)C(Cc2ccc(NC(=O)c3cc(=O)c4c(O)cc(O)cc4o3)cc2)S1 (centres unmarked) [Example no. 18] | 0.720 ± 0.037 | 
